According to patent publication US8614166B2, “Herbicidal composition for tolerant or resistant cotton crops” (Bayer Intellectual Property GmbH, priority 1998, dated 2013):
Where a name gives a salt, the structure may show the parent alone.

Key:
Assay in all cases: Field trial in tolerant cotton, herbicidal action against weed
Format in all cases: in vivo
Abutilon theophrasti = conditions: dose 300 g of a.s./ha; application in the 4-5 leaf stage; scoring 27 days after application
Procedure: (§1) Transgenic cotton plants with a resistance to one or more herbicides (A) together with typical weed plants were grown in the open on 2×5 m plots under natural field conditions; alternatively, weed infestation occurred naturally when the cotton plants were grown.
(§2) 2, 4, 6 and 8 weeks after the application, the herbicidal activity of the active substances or active substance mixtures was scored visually with reference to the treated plots in comparison to untreated control plots. The damage to, and the development of, all aerial parts of the plants was recorded. Scoring was done on the basis of a percentage sale (100% action=all plants destroyed; 50% action=50% of the plants and green parts of the plants destroyed; 0% action=no recognizable effect=like control plot. The mean of the score values of in each case 4 plots was calculated.

Sorghum halepense = conditions: application in the 4-leaf stage, scoring 30 days after application
Procedure: as §1, §2

Ipomoea hederacea = conditions: application in the 4-leaf stage, scoring 23 days after application
Procedure: as §1
(§3) […] The damage to, and the development of, all aerial parts of the plants was recorded. Scoring was done on the basis of a percentage sale (100% action=all plants destroyed; 50% action=50% of the plants and green parts of the plants destroyed; 0% action=no recognizable effect=like control plot. The mean of the score values of in each case 4 plots was calculated.

Echinocloa colonum = conditions: application in the 4-5-leaf stage, scoring 3 weeks after application
Procedure: as §1, §3

Datura stramonium = conditions: application in the 4-5-leaf stage, scoring 3 weeks after application
Procedure: as §1, §3

Q: `CP(=O)(O)CCC(N)C(=O)O` (stereo not shown) [(A1.2), glufosinate-monoammonium salt] was tested. Which “Herbicidal action (%) against Abutilon theophrasti” value (Abutilon theophrasti) did it give?
A: Its value is 30%.

Q: What about the “Herbicidal action (%) against Sorghum halepense” value (Sorghum halepense; dose 300 g of a.s./ha) of the same compound?
A: The value was 15%.

Q: And the “Herbicidal action (%) against Sorghum halepense” value (Sorghum halepense; dose 500 g of a.s./ha)?
A: The value was 53%.

Q: And the “Herbicidal action (%) against Ipomoea hederacea” value (Ipomoea hederacea; dose 400 g of a.s./ha)?
A: Its value is 43%.

Q: What about the “Herbicidal action (%) against Ipomoea hederacea” value (Ipomoea hederacea; dose 600 g of a.s./ha) of the same compound?
A: The value was 75%.

Q: And the “Herbicidal action (%) against Echinocloa colonum” value (Echinocloa colonum; dose 450 g of a.s./ha)?
A: Its value is 0%.

Q: What about the “Herbicidal action (%) against Echinocloa colonum” value (Echinocloa colonum; dose 600 g of a.s./ha) of the same compound?
A: Its value is 15%.

Q: And the “Herbicidal action (%) against Echinocloa colonum” value (Echinocloa colonum; dose 1000 g of a.s./ha)?
A: Its value is 30%.

Q: And the “Herbicidal action (%) against Datura stramonium” value (Datura stramonium; dose 450 g of a.s./ha)?
A: Its value is 75%.

Q: What about the “Herbicidal action (%) against Datura stramonium” value (Datura stramonium; dose 600 g of a.s./ha) of the same compound?
A: The value was 90%.

Q: What about the “Herbicidal action (%) against Datura stramonium” value (Datura stramonium; dose 1000 g of a.s./ha) of the same compound?
A: The value was 100%.

Q: `CCCC(=NOCC)C1=C(O)CC(C2CCCSC2)CC1=O` (stereo not shown) [(B4.2), 2-(1-ethoxyiminobutyl)-3-hydroxy-5-thian-3-ylcyclohex-2-enone] was tested. Which “Herbicidal action (%) against Sorghum halepense” value (Sorghum halepense; dose 125 g of a.s./ha) did it give?
A: The value was 58%.

Q: For `CCc1cccc(C)c1N(C(=O)CCl)C(C)COC` (stereo not shown) [(B1.9), 2-chloro-N-(2-ethyl-6-methylphenyl)-N-(2-methoxy-1-methylethyl)acetamide], which “Herbicidal action (%) against Echinocloa colonum” value (Echinocloa colonum; dose 930 g of a.s./ha) is on record?
A: The value was 88%.

Q: What about the “Herbicidal action (%) against Datura stramonium” value (Datura stramonium; dose 930 g of a.s./ha) of the same compound?
A: Its value is 0%.

Q: `N#Cc1cc(Br)c(O)c(Br)c1` [(B5.1), 3,5-dibromo-4-hydroxybenzonitrile] was tested. Which “Herbicidal action (%) against Ipomoea hederacea” value (Ipomoea hederacea; dose 560 g of a.s./ha) did it give?
A: The value was 32%.

Q: How did the “Herbicidal action (%) against Ipomoea hederacea” value (Ipomoea hederacea; dose 35 g of a.s./ha) turn out when `COCc1cnc(C2=NC(C)(C(C)C)C(=O)N2)c(C(=O)O)c1` (stereo not shown) [(A3.5), imazamox] was run?
A: Its value is 42%.

Q: `CN(C)C(=O)Nc1cccc(C(F)(F)F)c1` [(B1.2), N,N-dimethyl-N′-[3-(trifluoromethyl)phenyl]urea] was tested. Which “Herbicidal action (%) against Ipomoea hederacea” value (Ipomoea hederacea; dose 1120 g of a.s./ha) did it give?
A: The value was 37%.

Q: `CCC(CC)Nc1c([N+](=O)[O-])cc(C)c(C)c1[N+](=O)[O-]` [(B1.12), N-(1-ethylpropyl)-2,6-dinitro-3,4-xylidine] was tested. Which “Herbicidal action (%) against Ipomoea hederacea” value (Ipomoea hederacea; dose 925 g of a.s./ha) did it give?
A: Its value is 42%.

Q: For `COc1cc(OC)nc(Sc2cccc(Cl)c2C(=O)[O-])n1.[Na+]` [(B2.4), sodium 2-chloro-6-(4,6-dimethoxypyrimidin-2-ylthio)benzoate], which “Herbicidal action (%) against Ipomoea hederacea” value (Ipomoea hederacea; dose 105 g of a.s./ha) is on record?
A: The value was 42%.
